“And” between values parts separate entries of the source, which are not always exact repeats. Identical values can stand only once.
Key:
C. jejuni ATCC 33560 WT [1] = type: cell-based, Campylobacter jejuni
Procedure: Invasion assay was performed as described previously with modifications. Briefly, prior to bacterial infection, a monolayer of 1 × 10^5 Caco-2 cells was prepared in a 24-well tissue culture plate and incubated in DMEM with 10% FBS, and 0.6% CMC at 37 °C under 5% CO2. The cultures of wild-type C. jejuni strain with or without BMK-S301 (100 μM) and KL-L9P (1 μM) were prepared, as described above (TEM). The bacterial suspensions were diluted in DMEM with 10% FBS and 0.6% CMC, and then added onto the cell monolayer at a multiplicity of infection (MOI) of 100. After a 3 h incubation, the cells were incubated with 250 μg/mL of gentamicin in the fresh pre-warmed medium for 2 h to kill any extracellular bacteria. The wells were washed three times with 1 × PBS, and treated with 0.1% Triton X-100 in 1 × PBS for 15 min. After dilution with 1 × PBS, the suspensions were plated on MH agar to enumerate the CFU. […]

C. jejuni ATCC 33560 WT [2] = test: Cell morphology change monitored by TEM; type: cell-based, Campylobacter jejuni; details: 37 °C, 24 h, KL-L9P used for improved permeability
Excerpt: Next, we investigated whether our inhibitors could transform C. jejuni from the helical- to curved-rod morphology on exposure to the inhibitors (Fig. 5). […] To investigate the effect of inhibitors on the morphology of C. jejuni cells, we exposed the cells to the inhibitors and checked whether the morphology could be altered.
Cell-morphology change of C. jejuni upon inhibitor treatment was monitored, as described previously with modifications. Briefly, overnight cultures of C. jejuni were harvested from MH agar plates and suspended in MH broth to approximately 1 × 10^6 colony-forming unit (CFU)/mL. A total of 500 μL of the diluted bacterial culture was added into each well of a 24-well plate with 5 μL of two-fold serial dilutions of inhibitor. For the control strain with no inhibitor, the same volume of dilution buffer (20 mM Tris-HCl pH 8.0 and 200 mM NaCl) was used. The plate was incubated under a micro-aerobic condition at 37 °C for 24 h in the static condition. After incubation, 10 μL of the bacterial cultures was placed on formvar/carbon-coated copper grids (200 mesh) and negatively stained with 2% uranyl acetate for 2 s.

Pgp3 = Pgp3 (Campylobacter jejuni, UniProt Q0P921); test: biochemical; design: species or system C. jejuni
Procedure: Because DABCYL/FITC is a typical FRET quencher–fluorophore pair, an increase in fluorescent signals can be directly detected when it is processed by Pgp3 (Tang et al., 2013). The kinetic parameters (kcat = 0.0209 ± 0.0006 s^−1 and KM = 6.6 ± 0.7 µM) for the substrate were obtained by fitting the data to the Michaelis-Menten equation (Supplementary Fig. 8a).
The enzymatic assay for Pgp3 activity was determined using a fluorescein isothiocyanate (FITC) and 4′-([4′-(Dimethylamino)phenyl]-azo)-benzoic acid (DABCYL) pair for FRET. […] The excitation and emission spectra were set at 495 nm and 525 nm, respectively. Pgp3 (0.1 μM) in 20 mM HEPES pH 7.5, 200 mM NaCl, and 0.4 μM of zinc was used in this assay. The reaction was initiated by adding 3 μL of 0.015–2 mM substrate (final 1.56–200 μM) in the total volume of 30 μL of the reaction mixture. Initial velocities were calculated using slopes of fluorescence signal intensity in 3 min after the initiation of the reaction. In order to elucidate the inhibition mechanism of BMK-S301, initial velocities with various concentrations of substrates were measured in the presence of 40 μM BMK-S301. […] The same method was used for the determination of the IC50 values for inhibitors. Inhibitors in each concentration were pre-incubated with 0.1 μM of Pgp3 for 1 h on ice, and initial velocities were determined for 0.1, 10, 50, 100, 200, 500, and 1000 μM of each inhibitor in reaction with 10 μM of substrate. The IC50 values were calculated using GraphPad Prism 7.

Caco-2 epithelial cells = test: Cytotoxicity assay (LDH release); type: cell-based; details: 3 h; for Cytotoxicity test (LDH release, Triton X-100 lysis = 100%): single replicates, source data Fig. 5c
Procedure: To examine the cytotoxicity of BMK-[…], the lactate dehydrogenase (LDH) activity was measured using Cytotoxicity Detection Kit^PLUS (LDH; Roche, Switzerland) according to the manufacturer's instructions. Briefly, the monolayers of Caco-2 cells were prepared in a 96 well tissue culture plate and incubated in Dulbecco's modified-eagle medium (DMEM; ATCC) with 10% fetal bovine serum (FBS; Invitrogen), and 0.6% carboxymethylcellulose (CMC) at 37 °C under 5% CO2. […] The 2% Triton X-100 was used to release all LDH of Caco-2 cell as a positive control.

Pgp3, sequence (Q0P921 entry or part of it): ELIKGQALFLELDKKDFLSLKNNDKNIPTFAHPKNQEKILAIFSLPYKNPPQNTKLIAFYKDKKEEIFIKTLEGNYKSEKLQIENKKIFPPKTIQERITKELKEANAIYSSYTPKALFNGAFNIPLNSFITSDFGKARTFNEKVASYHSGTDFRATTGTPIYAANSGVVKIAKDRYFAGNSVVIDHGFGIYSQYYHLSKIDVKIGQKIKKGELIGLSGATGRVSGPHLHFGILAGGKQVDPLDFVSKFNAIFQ

Structure (SMILES): CC(=O)N[C@@H](Cc1ccc(S(N)(=O)=O)cc1)C(=O)N[C@H](C)C(=O)NO [BMK-S301]
- invasion ability of WT C. jejuni (C. jejuni ATCC 33560 WT [1]; 100 μM BMK-S301 and 1 μM KL-L9P, high-viscosity medium, 3 h after infection): decreased compared to that of the untreated C. jejuni
- Invasion assay (intracellular bacteria, relative) (C. jejuni ATCC 33560 WT [1]; BMK-S0301 100 μM with MAP 1 μM, single replicates, source data Fig. 5d): 90.1581 and 72.6517 and 79.6542 and 66.8677 and 113.675 and 78.0123 and 88.3559 and 93.1319 and 83.5799
- minimum concentration causing morphological changes (helical to curved-rod) (C. jejuni ATCC 33560 WT [2]): 25 μM
- IC50 (Pgp3): 22 ± 1.4 µM
- Cytotoxicity test (LDH release, Triton X-100 lysis = 100%) (Caco-2 epithelial cells; 10 μM): 0% (5×) and 4.598%
- Cytotoxicity test (LDH release, Triton X-100 lysis = 100%) (Caco-2 epithelial cells; 100 μM): 2.466% and 0% (5×)
- toxicity to Caco-2 cells (Caco-2 epithelial cells; LDH release, 10 or 100 μM): not toxic
